US10793563B2, “GCN2 inhibitors and uses thereof” (Merck Patent GmbH, priority 2018, dated 2020)
pIC50, pKi: −log10 of the molar value.

Columns and labels:
[1] = biological target: GCN2 kinase (Homo sapiens (Human), UniProt Q9P2K8); experiment: GCN2 Enzyme Inhibition Assay (Transcreener ADP2 fluorescence polarization); type: biochemical; details: 280 μM ATP, 200 μM (RS)7 peptide, 4 nM GCN2, 25° C.; for pKi: Ki(app)
Summary of the method: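 Transcreener ADP2 fluorescence polarization detection of ADP from 4 nM GCN2 with (RS)7 substrate in 25 mM Tris-HCl pH 7.5, 50 mM NaCl, 10 mM MgCl2, 1 mM DTT. Compound pre-incubated with enzyme 10 min at 25 °C; reaction started by ATP, run 1 h at 25 °C. IC50 and Ki(app) by tight-binding fit.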

[2] = biological target: intracellular GCN2 (phosphorylation of the GCN2 substrate eIF2α) (Homo sapiens (Human), UniProt Q9P2K8); experiment: GCN2 Cellular Inhibition Assay (AlphaScreen SureFire P-eIF2α Ser51, borrelidin-treated U2OS cells); type: cell-based; details: 10 μM borrelidin, 1 h, phosphorylated eIF2α Ser51, read-out: GCN2 Biomarker (IC50)
intracellular GCN2 (phosphorylation of the GCN2 substrate eIF2α), sequence (Q9P2K8 whole entry): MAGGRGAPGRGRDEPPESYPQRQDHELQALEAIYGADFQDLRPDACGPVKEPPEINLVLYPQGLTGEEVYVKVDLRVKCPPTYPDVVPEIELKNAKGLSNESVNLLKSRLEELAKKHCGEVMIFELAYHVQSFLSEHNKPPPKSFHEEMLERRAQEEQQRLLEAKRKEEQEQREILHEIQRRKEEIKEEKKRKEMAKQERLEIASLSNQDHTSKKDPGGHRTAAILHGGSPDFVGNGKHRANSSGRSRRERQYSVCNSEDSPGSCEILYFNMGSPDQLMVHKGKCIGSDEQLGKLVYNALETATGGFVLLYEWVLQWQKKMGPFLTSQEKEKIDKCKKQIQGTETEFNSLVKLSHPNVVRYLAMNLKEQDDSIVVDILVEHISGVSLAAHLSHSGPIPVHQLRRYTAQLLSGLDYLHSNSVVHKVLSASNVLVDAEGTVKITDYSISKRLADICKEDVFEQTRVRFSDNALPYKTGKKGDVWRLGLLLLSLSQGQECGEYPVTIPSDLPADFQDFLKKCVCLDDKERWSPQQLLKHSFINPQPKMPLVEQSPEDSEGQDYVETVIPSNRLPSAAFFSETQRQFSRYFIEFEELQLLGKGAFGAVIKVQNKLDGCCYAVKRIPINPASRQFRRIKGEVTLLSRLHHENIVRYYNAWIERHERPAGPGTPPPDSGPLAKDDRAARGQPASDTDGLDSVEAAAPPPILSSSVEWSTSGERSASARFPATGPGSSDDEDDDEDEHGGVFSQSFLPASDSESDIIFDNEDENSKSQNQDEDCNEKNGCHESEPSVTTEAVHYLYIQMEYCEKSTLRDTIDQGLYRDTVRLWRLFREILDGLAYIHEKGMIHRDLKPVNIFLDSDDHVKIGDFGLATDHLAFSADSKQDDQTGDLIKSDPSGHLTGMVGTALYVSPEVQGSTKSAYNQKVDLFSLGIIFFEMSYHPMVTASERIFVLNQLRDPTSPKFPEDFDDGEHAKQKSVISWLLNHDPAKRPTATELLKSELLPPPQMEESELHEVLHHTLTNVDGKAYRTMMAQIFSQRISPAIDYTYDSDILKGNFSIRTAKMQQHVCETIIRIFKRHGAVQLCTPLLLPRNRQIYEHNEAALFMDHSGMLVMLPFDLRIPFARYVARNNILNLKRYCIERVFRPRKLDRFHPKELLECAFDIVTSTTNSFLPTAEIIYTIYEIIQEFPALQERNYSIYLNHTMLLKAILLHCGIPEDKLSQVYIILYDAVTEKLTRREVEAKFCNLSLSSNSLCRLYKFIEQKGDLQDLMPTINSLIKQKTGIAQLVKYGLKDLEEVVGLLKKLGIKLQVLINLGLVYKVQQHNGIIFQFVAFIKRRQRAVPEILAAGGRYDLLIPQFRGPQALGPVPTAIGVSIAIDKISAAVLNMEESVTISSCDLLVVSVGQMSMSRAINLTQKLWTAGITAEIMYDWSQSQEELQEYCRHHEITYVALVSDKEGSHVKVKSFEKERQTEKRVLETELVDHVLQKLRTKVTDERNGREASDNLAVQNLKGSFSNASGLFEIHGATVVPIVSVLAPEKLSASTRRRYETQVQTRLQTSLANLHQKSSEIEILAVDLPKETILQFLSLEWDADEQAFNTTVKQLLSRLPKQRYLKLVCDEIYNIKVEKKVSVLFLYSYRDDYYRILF
Summary of the method: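 U2OS cells adhered overnight, then given compound (top 40 μM, 4-fold serial dilutions) plus 10 μM borrelidin for 1 h at 37 °C. Lysates assayed for eIF2α phospho-Ser51 by AlphaScreen SureFire; % inhibition versus borrelidin-only wells.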

GCN2 kinase, sequence (Q9P2K8 whole entry): as above

Row | pIC50 [1] | pIC50 [2] | pKi [1] | Structure (SMILES)
1 | 6.00 to 7.00 | 5.30 to 6.30 |  | FC(F)C1CN(c2ccnc(-c3cnc4ccc(C(F)(F)F)cn34)n2)CCO1 (stereo not drawn) [I-225, 2-(difluoromethyl)-4-(2-(6-(trifluoromethyl)imidazo[12-a]pyridin-3-yl)pyrimidin-4-yl)morpholine]
2 | 6.00 to 7.00 | 5.30 to 6.30 |  | C[C@@H]1CN(c2ccnc(-c3cnc4ccc(C(F)(F)F)cn34)n2)C[C@H](C)N1C(=O)C1CC1 [I-403, cyclopropyl(cis-2,6-dimethyl-4-(2-(6-(trifluoromethyl)imidazo[1,2-a]pyridin-3-yl)pyrimidin-4-yl)piperazin-1-yl)methanone]
3 | 7.00 to 8.00 | 5.30 to 6.30 |  | CC1(C)CN(c2ccnc(-c3cnc4ccc(C(F)(F)F)cn34)n2)CCN1C(=O)C1CCC(=O)CC1 [I-492, 4-(2,2-dimethyl-4-(2-(6-(trifluoromethyl)imidazo[1,2-a]pyridin-3-yl)pyrimidin-4-yl)piperazine-1-carbonyl)cyclohexan-1-one]
4 | 7.00 to 8.00 | 5.30 to 6.30 |  | NC(=O)C1CN(c2ccnc(-c3cnc4ccc(C(F)(F)F)cn34)n2)CCN1CCC(F)(F)F (stereo not drawn) [I-245, 4-(2-(6-(trifluoromethyl)imidazo[1,2-a]pyridin-3-yl)pyrimidin-4-yl)-1-(3,3,3-trifluoropropyl)piperazine-2-carboxamide]
5 | > 8.00 | > 6.30 |  | FC(F)(F)c1ccc2ncc(-c3ccnc(N4CCN(C[C@@H]5CCCOC5)[C@@H](c5cn[nH]c5)C4)n3)n2c1 [I-546, 3-(2-((S)-3-(1H-pyrazol-4-yl)-4-(((S)-tetrahydro-2H-pyran-3-yl)methyl)piperazin-1-yl)pyrimidin-4-yl)-6-(trifluoromethyl)imidazo[1,2-a]pyridine]
6 | 7.00 to 8.00 | > 6.30 |  | C[C@@H]1[C@@H](CNS(C)(=O)=O)N(C2CC2)[C@H](C)CN1c1ccnc(-c2cnc3ccc(C(F)(F)F)cn23)n1 (stereo in doubt) [I-493, N-(((2R,3R,6R)-1-cyclopropyl-3,6-dimethyl-4-(2-(6-(trifluoromethyl)imidazo[1,2-a]pyridin-3-yl)pyrimidin-4-yl)piperazin-2-yl)methyl)methanesulfonamide]
7 | 7.00 to 8.00 | > 6.30 |  | C[C@@H]1CN(c2nccc(-c3cnc4ccc(C(F)(F)F)cn34)n2)[C@H](C)C(c2cn[nH]c2)N1 (stereo partly drawn) [I-171, 3-(2-((2R,5R)-2,5-dimethyl-3-(1H-pyrazol-4-yl)piperazin-1-yl)pyrimidin-4-yl)-6-(trifluoromethyl)imidazo[1,2-a]pyridine]
8 | 7.00 to 8.00 | 5.30 to 6.30 |  | Cc1[nH]ncc1C1NCCN(c2ccnc(-c3cnc4ccc(C(F)(F)F)cn34)n2)C1C (stereo not drawn) [I-321, 3-(4-(2-methyl-3-(5-methyl-1H-pyrazol-4-yl)piperazin-1-yl)pyrimidin-2-yl)-6-(trifluoromethyl)imidazo[1,2-a]pyridine]
9 |  | 5.30 to 6.30 | 7.00 to 8.00 | O=C(Nc1ccncc1)[C@H]1CCCN(c2ccnc(-c3cnc4cc(F)c(Cl)cn34)n2)C1 [I-86, (S)-1-[2-(6-Chloro-7-fluoro-imidazo[1,2-a]pyridine-3-yl)-pyrimidin-4-yl]-piperidine-3-carboxylic acid pyridine-4-ylamide]
10 | 7.00 to 8.00 | 5.30 to 6.30 |  | CC(=O)N1[C@H](C)CN(c2ccnc(-c3cnc4ccc(C(F)(F)F)cn34)n2)C[C@@H]1C [I-414, 1-(cis-2,6-dimethyl-4-(2-(6-(trifluoromethyl)imidazo[1,2-a]pyridin-3-yl)pyrimidin-4-yl)piperazin-1-yl)ethan-1-one]
11 | > 8.00 | > 6.30 |  | C[C@@H]1[C@H](c2cn[nH]c2)NCCN1c1ccnc(-c2cnc3ccc(C(F)(F)F)cn23)n1 [I-537, 4-[(2R,3 S)-2-methyl-3-(1H-pyrazol-4-yl)piperazin-1-yl]-2-[6-(trifluoromethyl)imidazo[1,2-a]pyridin-3-yl]pyrimidine]
12 | > 8.00 | > 6.30 |  | Cc1n[nH]cc1[C@@H]1CN(c2ccnc(-c3cnc4cc(Cl)c(C(F)(F)F)cn34)n2)C[C@@H](C)O1 [I-360, (2R,6R)-4-(2-(7-chloro-6-(trifluoromethyl)imidazo[1,2-a]pyridin-3-yl)pyrimidin-4-yl)-2-methyl-6-(3-methyl-1H-pyrazol-4-yl)morpholine]
13 | 7.00 to 8.00 | > 6.30 |  | C[C@@H]1C[C@@H](c2cn[nH]c2)CN(c2nccc(-c3cnc4ccc(C5CC5)cn34)n2)C1 [I-236, 6-cyclopropyl-3-(2-((3R,5S)-3-methyl-5-(1H-pyrazol-4-yl)piperidin-1-yl)pyrimidin-4-yl)imidazo[1,2-a]pyridine]
14 | 7.00 to 8.00 | 5.30 to 6.30 |  | Cc1cnc(N2C[C@@H](c3cn[nH]c3C)O[C@@H](C)C2)nc1-c1cnc2ccc(Cl)cn12 [I-203, (2S,6R)-4-(4-(6-chloroimidazo[1,2-a]pyridin-3-yl)-5-methylpyrimidin-2-yl)-2-methyl-6-(5-methyl-1H-pyrazol-4-yl)morpholine]
15 |  | 5.30 to 6.30 | 7.00 to 8.00 | CS(=N)(=O)C[C@H]1CCCN(c2ccnc(-c3cnc4ccc(C(F)(F)F)cn34)n2)C1 (stereo partly drawn) [I-4, 3-(4-(3-((S-Methylsulfonimidoyl)methyl)piperidin-1-yl)pyrimidin-2-yl)-6-(trifluoromethyl)imidazo[1,2-a]pyridine]
16 | 7.00 to 8.00 | 5.30 to 6.30 |  | NC(=O)[C@@H]1CN(c2ccnc(-c3cnc4cc(F)c(Cl)cn34)n2)CCN1C1CC1 [I-424, (S)-4-(2-(6-chloro-7-fluoroimidazo[1,2-a]pyridin-3-yl)pyrimidin-4-yl)-1-cyclopropylpiperazine-2-carboxamide]
17 | > 8.00 | 5.30 to 6.30 |  | FC(F)(F)c1ccc2ncc(-c3nccc(N4CCN(Cc5ncc[nH]5)C(c5cn[nH]c5)C4)n3)n2c1 (stereo not drawn) [I-371, 3-(4-(4-((1H-imidazol-2-yl)methyl)-3-(1H-pyrazol-4-yl)piperazin-1-yl)pyrimidin-2-yl)-6-(trifluoromethyl)imidazo[1,2-a]pyridine]
18 | 6.00 to 7.00 | 5.30 to 6.30 |  | O=C(C1CC(F)(F)C1)N1CCN(c2ccnc(-c3cnc4ccc(C(F)(F)F)cn34)n2)CC1c1cn[nH]c1 (stereo not drawn) [I-402, (2-(1H-pyrazol-4-yl)-4-(2-(6-(trifluoromethyl)imidazo[1,2-a]pyridin-3-yl)pyrimidin-4-yl)piperazin-1-yl)(3,3-difluorocyclobutyl)methanone]
19 | 7.00 to 8.00 | > 6.30 |  | CC1(C)C[C@H]1CN1CCN(c2ccnc(-c3cnc4ccc(C(F)(F)F)cn34)n2)C[C@H]1c1cn[nH]c1 [I-526, 3-(4-((R)-4-(((R)-2,2-dimethylcyclopropyl)methyl)-3-(1H-pyrazol-4-yl)piperazin-1-yl)pyrimidin-2-yl)-6-(trifluoromethyl)imidazo[1,2-a]pyridine]
20 | > 8.00 | > 6.30 |  | Cc1cc(-c2cnc3ccc(Cl)cn23)nc(N2C[C@@H](c3c[nH]nc3C)O[C@@H](C)C2)n1 [I-221, (2S,6R)-4-(4-(6-chloroimidazo[1,2-a]pyridin-3-yl)-6-methylpyrimidin-2-yl)-2-methyl-6-(5-methyl-1H-pyrazol-4-yl)morpholine]
21 | > 8.00 | > 6.30 |  | Cc1n[nH]cc1C1CN(c2ccnc(-c3cnc4ccc(C(F)(F)F)cn34)n2)CC(C)O1 (stereo not drawn) [I-358, 2-methyl-6-(3-methyl-1H-pyrazol-4-yl)-4-(2-(6-(trifluoromethyl)imidazo[1,2-a]pyridin-3-yl)pyrimidin-4-yl)morpholine]
22 | 7.00 to 8.00 | 5.30 to 6.30 |  | Cc1[nH]ncc1[C@@H]1C[C@@H](O)CN(c2ccnc(-c3cnc4ccc(C(F)(F)F)cn34)n2)C1 [I-308, (3R,5S)-5-(5-methyl-1H-pyrazol-4-yl)-1-(2-(6-(trifluoromethyl)imidazo[1,2-a]pyridin-3-yl)pyrimidin-4-yl)piperidin-3-ol]
23 |  | 5.30 to 6.30 | > 8.00 | Cc1noc([C@H]2CN(c3ccnc(-c4cnc5ccc(C#N)cn45)n3)C[C@@H](C)O2)n1 [I-92, 3-{4-[(2R,6R)-2-methyl-6-(3-methyl-1,2,4-oxadiazol-5-yl)morpholin-4-yl]pyrimidin-2-yl}imidazo[1,2-a]pyridine-6-carbonitrile]
24 | 7.00 to 8.00 | 5.30 to 6.30 |  | C[C@H](NS(C)(=O)=O)[C@@H]1CN(c2ccnc(-c3cnc4ccc(C(F)(F)F)cn34)n2)CCO1 [I-407, N—((S)-1-((S)-4-(2-(6-(trifluoromethyl)imidazo[1,2-a]pyridin-3-yl)pyrimidin-4-yl)morpholin-2-yl)ethyl)methanesulfonamide]
25 | 7.00 to 8.00 | > 6.30 |  | Cc1cc(-c2cnc3ccc(Cl)cn23)nc(N2C[C@@H](C)O[C@@H](c3c[nH]nc3C)C2)n1 [I-222, (2R,6S)-4-(4-(6-chloroimidazo[1,2-a]pyridin-3-yl)-6-methylpyrimidin-2-yl)-2-methyl-6-(5-methyl-1H-pyrazol-4-yl)morpholine]
26 |  | 5.30 to 6.30 | > 8.00 | CS(=O)(=O)NC[C@@H]1CN(c2ccnc(-c3cnc4ccc(C(F)F)cn34)n2)CCO1 [I-13, N-[[(2S)-4-[2-[6-(Difluoromethyl)imidazo[1,2-a]pyridin-3-yl]pyrimidin-4-yl]morpholin-2-yl]methyl]methanesulfonamide]
27 |  | < 5.30 | 7.00 to 8.00 | CS(=O)(=O)NC[C@@H]1CN(c2nc(-c3cnc4ccc(C(F)(F)F)cn34)ns2)CCO1 [I-106, (S)—N-((4-(3-(6-(trifluoromethyl)imidazo[1,2-a]pyridin-3-yl)-1,2,4-thiadiazol-5-yl)morpholin-2-yl)methyl)methanesulfonamide]
